From ChEMBL document CHEMBL1149932, “DNA - gyrase inhibition and antibacterial activity of fluoro-quinolones: influence of the position of the fluorine(s)” (1992)
In brackets after ≈: the same amount, converted by molar mass.

What was measured:
[1] = target: T1, DNA gyrase (Escherichia coli) (UniProt P0AES6+P0AES4); assay: In vitro antibacterial activity expressed as MIC against Escherichia coli HR DNA gyrase; type: protein-complex assay
[2] = target: T1, DNA gyrase (Escherichia coli); assay: In vitro inhibitory concentration which show total effect against Escherichia coli HR DNA gyrase; type: protein-complex assay
Klebsiella aerogenes [3] = assay: (§1) In vitro antibacterial activity expressed as MIC against Enterobacter aerogenes; type: functional
Staphylococcus aureus = assay: In vitro antibacterial activity expressed as MIC against Staphylococcus aureus; type: functional
Proteus mirabilis [4] = assay: (§2) In vitro antibacterial activity expressed as MIC against Proteus mirabilis; type: functional
Providencia rettgeri [5] = assay: (§3) In vitro antibacterial activity expressed as MIC against Providencia rettgeri; type: functional
Providencia stuartii = assay: In vitro antibacterial activity expressed as MIC against Providencia stuartii II; type: functional
Streptococcus pneumoniae = assay: In vitro antibacterial activity expressed as MIC against Streptococcus pneumoniae; type: functional
[6] = target: T1, DNA gyrase (Escherichia coli); assay: In vitro inhibitory least concentration which show effect against Escherichia coli HR DNA gyrase; type: protein-complex assay
Pseudomonas aeruginosa = assay: In vitro antibacterial activity expressed as MIC against Pseudomonas aeruginosa; type: functional
Haemophilus influenzae [7] = assay: (§4) In vitro antibacterial activity expressed as MIC against Haemophilus influenzae; type: functional
Serratia marcescens = assay: In vitro antibacterial activity expressed as MIC against Serratia marcescens; type: functional
Enterococcus faecalis = assay: In vitro antibacterial activity expressed as MIC against Enterococcus faecalis; type: functional
[8] = In vitro antibacterial activity expressed as MIC against Clostridium perfringens; type: functional
Klebsiella oxytoca [9] = assay: (§5) In vitro antibacterial activity expressed as MIC against Klebsiella oxytoca; type: functional
Escherichia coli = assay: In vitro antibacterial activity expressed as MIC against Escherichia coli; type: functional
[10] = system: Staphylococcus epidermidis; assay: In vitro antibacterial activity expressed as MIC against Staphylococcus epidermidis; type: functional
Morganella morganii = assay: In vitro antibacterial activity expressed as MIC against Morganella morganii II; type: functional
Klebsiella oxytoca [11] = assay: as §5
Haemophilus influenzae [12] = assay: as §4
Proteus mirabilis [13] = assay: as §2
Klebsiella aerogenes [14] = assay: as §1
Providencia rettgeri [15] = assay: as §3

| SMILES | MIC [1] [µg/mL] | IC0 [2] [µg/mL] | IC100 [2] [µg/mL] | MIC (Klebsiella aerogenes [3]) [µg/mL] | MIC (Staphylococcus aureus) [µg/mL] | MIC (Proteus mirabilis [4]) [µg/mL] | MIC (Providencia rettgeri [5]) [µg/mL] | MIC (Providencia stuartii) [µg/mL] | MIC (Streptococcus pneumoniae) [µg/mL] | IC0 [6] [µg/mL] | MIC (Pseudomonas aeruginosa) [µg/mL] | MIC (Haemophilus influenzae [7]) [µg/mL] | MIC (Serratia marcescens) [µg/mL] | MIC (Enterococcus faecalis) [µg/mL] | MIC [8] [µg/mL] | MIC (Klebsiella oxytoca [9]) [µg/mL] | MIC (Escherichia coli) [µg/mL] | MIC [10] [µg/mL] | MIC (Morganella morganii) [µg/mL] | other results |
| --- | --- | --- | --- | --- | --- | --- | --- | --- | --- | --- | --- | --- | --- | --- | --- | --- | --- | --- | --- | --- |
| CCn1cc(C(=O)O)c(=O)c2ccc(C)nc21 | 2.5 (≈ 10.8 µM) | 25 | 200 | – | – | – | – | – | – | – | – | – | – | – | – | – | – | – | – | – |
| CCn1cc(C(=O)O)c(=O)c2cc(F)c(N3CCN(C)CC3)cc21 | 0.019 (≈ 0.057 µM) | 0.64 | 20 | – | – | – | – | – | – | – | – | – | – | – | – | – | – | – | – | – |
| N[C@H]1CCN(c2cc(F)c3c(=O)c(C(=O)O)cn(C4CC4)c3c2F)C1 | 0.078 (≈ 0.223 µM) | – | 10 | 0.25 (≈ 0.716 µM) | 1 (≈ 2.86 µM) | 0.13 (≈ 0.372 µM) | 8 (≈ 22.9 µM) | 0.5 (≈ 1.43 µM) | 4 (≈ 11.5 µM) | 0.32 | 2 (≈ 5.73 µM) | 0.06 (≈ 0.172 µM) | 0.25 (≈ 0.716 µM) | 4 (≈ 11.5 µM) | 1 (≈ 2.86 µM) | 0.5 (≈ 1.43 µM) | 0.06 (≈ 0.172 µM) | 0.5 (≈ 1.43 µM) | 0.06 (≈ 0.172 µM) | – |
| N[C@H]1CCN(c2ccc3c(=O)c(C(=O)O)cn(C4CC4)c3c2F)C1 | 0.009 (≈ 0.0272 µM) | – | 10 | 0.03 (≈ 0.0905 µM) | 0.06 (≈ 0.181 µM) | 0.03 (≈ 0.0905 µM) | 1 (≈ 3.02 µM) | 0.06 (≈ 0.181 µM) | 0.5 (≈ 1.51 µM) | 0.32 | 0.25 (≈ 0.754 µM) | 0.007 (≈ 0.0211 µM) | 0.03 (≈ 0.0905 µM) | 0.25 (≈ 0.754 µM) | 0.5 (≈ 1.51 µM) | 0.06 (≈ 0.181 µM) | 0.007 (≈ 0.0211 µM) | 0.125 (≈ 0.377 µM) | 0.015 (≈ 0.0453 µM) | – |
| O=C(O)c1cn(C2CC2)c2cc(N3CCNCC3)c(F)cc2c1=O [CIPROFLOXACIN] | 0.009 (≈ 0.0272 µM) | 0.12 | 10 | – | 0.25 (≈ 0.754 µM) | – | – | 0.03 (≈ 0.0905 µM) | 0.25 (≈ 0.754 µM) | – | – | – | 0.03 (≈ 0.0905 µM) | 0.5 (≈ 1.51 µM) | – | – | – | 0.5 (≈ 1.51 µM) | 0.08 (≈ 0.241 µM) | MIC (Klebsiella oxytoca [11]): 0.06 µg/mL (≈ 0.181 µM); MIC (Haemophilus influenzae [12]): 0.03 µg/mL (≈ 0.0905 µM); MIC (Proteus mirabilis [13]): 0.008 µg/mL (≈ 0.0241 µM); MIC (Klebsiella aerogenes [14]): 0.03 µg/mL (≈ 0.0905 µM); MIC (Providencia rettgeri [15]): 0.5 µg/mL (≈ 1.51 µM) |
| N[C@H]1CCN(c2ccc3c(=O)c(C(=O)O)cn(C4CC4)c3c2)C1 | 0.009 (≈ 0.0287 µM) | – | 20 | 0.06 (≈ 0.191 µM) | 0.5 (≈ 1.6 µM) | 0.13 (≈ 0.415 µM) | 8 (≈ 25.5 µM) | 1 (≈ 3.19 µM) | 2 (≈ 6.38 µM) | 0.32 | 0.5 (≈ 1.6 µM) | 0.08 (≈ 0.255 µM) | 0.5 (≈ 1.6 µM) | 4 (≈ 12.8 µM) | – | 0.25 (≈ 0.798 µM) | 0.03 (≈ 0.0957 µM) | 0.25 (≈ 0.798 µM) | 0.13 (≈ 0.415 µM) | – |
| N[C@H]1CCN(c2cc3c(cc2F)c(=O)c(C(=O)O)cn3C2CC2)C1 | 0.005 (≈ 0.0151 µM) | – | 20 | 0.016 (≈ 0.0483 µM) | 0.06 (≈ 0.181 µM) | 0.03 (≈ 0.0905 µM) | 0.5 (≈ 1.51 µM) | 0.03 (≈ 0.0905 µM) | 0.13 (≈ 0.392 µM) | 0.24 | 0.25 (≈ 0.754 µM) | 0.002 (≈ 0.00604 µM) | 0.03 (≈ 0.0905 µM) | 0.25 (≈ 0.754 µM) | 0.25 (≈ 0.754 µM) | 0.03 (≈ 0.0905 µM) | 0.008 (≈ 0.0241 µM) | 0.03 (≈ 0.0905 µM) | 0.016 (≈ 0.0483 µM) | – |
| N[C@H]1CCN(c2cc(F)c3c(=O)c(C(=O)O)cn(C4CC4)c3c2)C1 | 0.156 (≈ 0.471 µM) | – | 20 | 0.5 (≈ 1.51 µM) | 8 (≈ 24.1 µM) | 0.5 (≈ 1.51 µM) | 16 (≈ 48.3 µM) | 1 (≈ 3.02 µM) | 4 (≈ 12.1 µM) | 0.64 | 4 (≈ 12.1 µM) | 0.13 (≈ 0.392 µM) | 0.5 (≈ 1.51 µM) | 16 (≈ 48.3 µM) | – | 1 (≈ 3.02 µM) | 0.25 (≈ 0.754 µM) | 8 (≈ 24.1 µM) | 0.25 (≈ 0.754 µM) | – |
